The target of test [1] is human histamine H4 receptor. As to conditions: read-out: Ki, human histamine H4 receptor; cited from earlier work.
The next test concerns SLIGRL-induced pruritus. Kind of test: SLIGRL-induced pruritus. The note with it: mice, 45 min observation. The format is in vivo. The procedure:
The area (around 2 cm^2) of the nape of mice was shaved at least 2 days prior to experiments. On the day of the experiment, each mouse was individually placed in plastic chambers (15 × 15 × 30 cm). After the 30 min period of habituation, the mice received an intradermal (i.d.) injection of histamine dihydrochloride (10 µmol/site), chloroquine (CQ, 200 µg/site), or SLIGRL-NH2 (40 nmol/site), which were dissolved in physiological saline and administrated at the constant volume of 20 μL. Immediately following the injection, scratching (series of movements considered as a single scratching bout usually consisted of three single scratches) of the injected site by the hind paw was counted for 60 min, 30 min, or 45 min after histamine, CQ, and SLIGRL-NH2 injection, respectively.

The target in another test is T1, human sigma 2 receptor (Homo sapiens, UniProt Q5BJF2).
T1 construct: host or cells: Jurkat cells
T1 sequence (Q5BJF2 whole entry): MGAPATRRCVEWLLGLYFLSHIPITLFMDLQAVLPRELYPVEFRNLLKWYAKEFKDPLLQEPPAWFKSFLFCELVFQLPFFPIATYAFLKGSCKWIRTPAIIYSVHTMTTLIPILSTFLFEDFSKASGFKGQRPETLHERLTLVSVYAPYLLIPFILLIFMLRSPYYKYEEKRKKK
Kind of test: radioligand binding, human sigma 2 receptor ([3H]DTG, Jurkat cells). The note with it: [3H]DTG with unlabeled (+)-pentazocine.

Test [2] relates to acute thermal pain (hot plate). Kind of test: hot plate test. The format is in vivo. The note with it: mice, 30 mg/kg i.p., 30 min before test; saline control 17.93 ± 1.04 s. The procedure:
The hot plate test was performed according to classical method described in Eddy and Leimbach with modifications. At the beginning, animals were tested for their baseline pain sensitivity threshold. For further studies, only mice that fulfilled the criterium of pain response ≤30 s were used. […] The latency to pain response (licking the hind paw or jumping) was measured. The cut-off time was set to up to 60 s to avoid tissue damage, and mice not responding within 60 s were removed from the apparatus and assigned the score of 60 s.
For orientation: Thermal pain tests record how soon the animal reacts.

The target in test [3] is human histamine H1 receptor. Set-up: method as in PMID 28797771. As to conditions: cited from earlier work.
The test system of test [4] is (R)-(-)-α-methylhistamine-induced dipsogenia. Set-up: method as in PMID 28797771. The note with it: rats; cited from earlier work.

Each structure is given as a SMILES string.

Consider 1 compound from PMC10609854 (Pharmaceuticals, 2023).

A word on the Ki: it is a measure of affinity in units of concentration, obtained from inhibition or displacement. As usually defined, the inhibition is the change of the read-out against control, counted positive when it falls. In the case of `O=C(O)C(=O)O.c1ccc(-c2ccc(OCCCCCN3CCCCCC3)cc2)cc1` [Compound E153, 1-(5-(4-Phenylphenoxy)pentyl)azepane hydrogen oxalate], the Ki in test [1] is 22 µM; in test [3] it was 1.27 µM. Besides, the “scratch bouts, SLIGRL-induced pruritus” value in the test with SLIGRL-induced pruritus (5 mg/kg i.p.) is recorded as “not effective”; with SLIGRL-induced pruritus (7.5 and 10 mg/kg i.p.), “significantly diminished”. The inhibition at 1 µM on human sigma 2 receptor was 102%. Also, the “latency time of the pain reaction, hot plate test” value in test [2] is listed as 37.60 ± 6.13 s. Further, in test [4], the “ED50, (R)-(-)-α-methylhistamine-induced dipsogenia” value is 1.75 mg/kg.
